The values that follow come from patent US5294617A, “Angiotensin II receptor blocking 2,3,6 substituted quinazolinones” (American Cyanamid Company, priority 1993, dated 1994).

The experiment deals with T1, Angiotensin II Receptor (Bos taurus, UniProt P25104).
T1 construct: The brownish tissue forming the adrenal cortex is scraped off and finely minced with scissors before homogenization; tissue local slaughter house (Maxwell--Cohen); host or cells: beef adrenal cortex, microsomal membranes (100,000×g pellet)
T1 sequence (P25104 1-359): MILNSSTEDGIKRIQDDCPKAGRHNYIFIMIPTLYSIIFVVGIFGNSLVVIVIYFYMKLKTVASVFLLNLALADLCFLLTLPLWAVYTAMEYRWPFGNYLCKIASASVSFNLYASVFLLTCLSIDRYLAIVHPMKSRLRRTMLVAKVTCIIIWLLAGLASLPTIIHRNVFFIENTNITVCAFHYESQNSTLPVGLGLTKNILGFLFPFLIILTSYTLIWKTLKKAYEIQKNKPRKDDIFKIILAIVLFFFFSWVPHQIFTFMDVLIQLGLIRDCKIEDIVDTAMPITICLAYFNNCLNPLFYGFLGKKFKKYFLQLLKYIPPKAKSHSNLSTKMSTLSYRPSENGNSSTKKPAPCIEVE
The experiment in a line: Receptor Binding Assay: binding of [125I](Sar1,Ile8)AngII to beef adrenal cortex membranes. The text has this:
[^125 I](Sar^1,Ile^8)AngII, S.A. 2200 Ci/mmole, is purchased from Dupont (NEN®, Boston, Mass.). All unlabeled AngII analogs, Dimethylsulfoxide (DMSO), nucleotides, bovine serum albumin (BSA) are purchased from Sigma Chemical Co., St. Louis, Mo. U.S.A.
Approximately sixteen (16) to twenty (20) beef adrenal glands are processed as follows: fresh adrenal glands received on crushed ice are cleaned of fatty tissues and the tough membranes encapsulating the glands are removed and discarded. The brownish tissue forming the adrenal cortex is scraped off and finely minced with scissors before homogenization. Care is taken to avoid contamination with medullary tissue during dissection. The scraped cortices are suspended in twenty volumes of an ice-cold buffer medium consisting of 10 mM Tris.HCl (pH 7.4 at 22° C.) and containing 1.0 mM EDTA and 0.2M sucrose. Unless otherwise indicated, all subsequent operations are done at 4° C. […] The homogenate is centrifuged first at low speed (3,000×g) for 10 min. […] This P2 pellet is discarded and the liquid phase is carefully decanted off in clean centrifuge tubes and recentrifuged at high speed (100,000×g) for 60 min. The translucent final pellet is harvested and combined in a small volume (20-50.0 ml) of 50.0 mM Tris.HCl buffer, pH 7.2. […] The pelleted membrane is reconstituted in 50.0 mM Tris.HCl buffer containing 0.1 mM of phenylmethylsulfonyl fluoride (PMSF) to give approximately a protein concentration of 2.5 mg per ml of tissue suspension. The membrane preparation is finally aliquoted in 1.0 ml volumes and stored at -70° C. until use in the binding assays.
In competition studies, experimental compounds are diluted in dimethylsulfoxide (DMSO) and added in 20 ul to wells before the introduction of tissue membranes. […] Assays are performed in triplicate. The wells are left undisturbed for 60 min. at room temperature. […] The filters are removed from the filter grid and counted in a Parkard® Cobra Gamma Counter for 1 min. […] The binding data are analyzed by the non-linear interactive "LUNDON-1" program (LUNDON SOFTWARE Inc., Cleveland, Ohio U.S.A.).

Usually IC50 stands for the midpoint of a concentration-inhibition curve.

With `CCCCc1nc2ccc([C@@H]3C[C@H](CO)ON3C)cc2c(=O)n1Cc1ccc(-c2ccccc2-c2nn[nH]n2)cc1` (relative stereo) [Example 15, CIS-2-butyl-6-5-(hydroxymethyl)-2-methyl-3-isoxazolidinyl]-3-[[2'-(1H-tetrazol-5[1,1'-biphenyl]-4-yl]methyl]-4(3H)-quinazolinone], the IC50 was 0.043 µM.
For the molecule `CCCCc1nc2ccc([C@H]3C[C@H](CO)ON3C)cc2c(=O)n1Cc1ccc(-c2ccccc2-c2nnn[nH]2)cc1` (relative stereo) [Example 16, TRANS-2-butyl-6-[5-(hydroxymethyl)-2-methyl-3-isoxazolidinyl]-3-[[2'-(1H-tetrazol-5-yl)[1,1'-biphenyl]-4-yl]methyl]-4(3H)-quinazolinone], the IC50 is 0.061 µM. The IC50 values of the last two molecules are within 1.5-fold of each other.
